This assay relates to L1210 leukemia ip in BDF1 mice, survival T/C. Briefly: NCI In Vivo Anticancer Drug Screen. Data for tumor model L1210 Leukemia (intraperitoneal) in B6D2F1 (BDF1) mice. Particulars: endpoint: mean survival time, higher = longer survival. In a few lines: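 Antitumor effect is assessed in tumor-bearing animals. Survival in the compound arm is compared with a vehicle-dosed control arm and expressed as their quotient.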

The mark [1] stands for this setting: dose: 100.0 mg/kg/injection, schedule: Q04DX003 (ip), vehicle: Klucel (hydroxypropylcellulose) (HPC).
The mark [2] stands for this setting: dose: 200.0 mg/kg/injection, schedule: Q04DX003 (ip), vehicle: Klucel (hydroxypropylcellulose) (HPC).
[3] abbreviates: dose: 100.0 mg/kg/injection, schedule: Q04DX003 (ip), vehicle: saline sonified.
The mark [4] stands for this setting: dose: 200.0 mg/kg/injection, schedule: Q04DX003 (ip), vehicle: saline sonified.
Setting [5] is: dose: 400.0 mg/kg/injection, schedule: Q04DX003 (ip), vehicle: saline sonified.
[6] abbreviates: dose: 100.0 mg/kg/injection, schedule: Q01DX001 (ip), vehicle: saline.
The mark [7] stands for this setting: dose: 200.0 mg/kg/injection, schedule: Q01DX001 (ip), vehicle: saline.
Setting [8] is: dose: 400.0 mg/kg/injection, schedule: Q01DX001 (ip), vehicle: saline.
The mark [9] stands for this setting: dose: 100.0 mg/kg/injection, schedule: Q04DX002 (ip), vehicle: Klucel (hydroxypropylcellulose) (HPC).
Setting [10] is: dose: 200.0 mg/kg/injection, schedule: Q04DX002 (ip), vehicle: Klucel (hydroxypropylcellulose) (HPC).
[11] abbreviates: dose: 400.0 mg/kg/injection, schedule: Q04DX002 (ip), vehicle: Klucel (hydroxypropylcellulose) (HPC).

Toxic doses and inconclusive results are not listed.

Regarding `Cc1cccc2c(Nc3ccc(NS(C)(=O)=O)cc3)c3ccccc3nc12`, the T/C by setting is: (dose: 2.5 mg/kg/injection, schedule: Q01DX009 (ip), vehicle: Klucel (hydroxypropylcellulose) (HPC)) 115 % of control; (dose: 5.0 mg/kg/injection, schedule: Q01DX009 (ip), vehicle: Klucel (hydroxypropylcellulose) (HPC)) 115 % of control; (dose: 10.0 mg/kg/injection, schedule: Q01DX009 (ip), vehicle: Klucel (hydroxypropylcellulose) (HPC)) 117 % of control; (dose: 10.0 mg/kg/injection, schedule: Q01DX009 (ip), vehicle: saline with Tween-80) 120 % of control; (dose: 10.0 mg/kg/injection, schedule: Q01DX009 (sc), vehicle: saline) 112 % of control; (dose: 20.0 mg/kg/injection, schedule: Q01DX001 (ip), vehicle: saline with Tween-80) 121 % of control. Also, the T/C reads like this: (dose: 20.0 mg/kg/injection, schedule: Q01DX009 (ip), vehicle: Klucel (hydroxypropylcellulose) (HPC)) 224 % of control; (dose: 20.0 mg/kg/injection, schedule: Q01DX009 (ip), vehicle: saline with Tween-80) 166 % of control; (dose: 20.0 mg/kg/injection, schedule: Q01DX009 (sc), vehicle: saline) 110 % of control; (dose: 40.0 mg/kg/injection, schedule: Q01DX001 (ip), vehicle: saline with Tween-80) 117 % of control; (dose: 40.0 mg/kg/injection, schedule: Q01DX009 (ip), vehicle: Klucel (hydroxypropylcellulose) (HPC)) 103 % of control; (dose: 40.0 mg/kg/injection, schedule: Q01DX009 (ip), vehicle: saline with Tween-80) 178 % of control. The T/C runs as follows: (dose: 40.0 mg/kg/injection, schedule: Q01DX009 (sc), vehicle: saline) 113 % of control; (dose: 40.0 mg/kg/injection, schedule: Q04DX003 (ip), vehicle: saline with Tween-80) 159 % of control; (dose: 80.0 mg/kg/injection, schedule: Q01DX009 (ip), vehicle: saline with Tween-80) 116 % of control; (dose: 80.0 mg/kg/injection, schedule: Q04DX003 (ip), vehicle: Klucel (hydroxypropylcellulose) (HPC)) 164 % of control; (dose: 80.0 mg/kg/injection, schedule: Q04DX003 (ip), vehicle: saline with Tween-80) 151 % of control; (dose: 100.0 mg/kg/injection, schedule: Q04DX003 (ip), vehicle: saline) 123 % of control. The T/C by setting is: (dose: 160.0 mg/kg/injection, schedule: Q04DX003 (ip), vehicle: Klucel (hydroxypropylcellulose) (HPC)) 206 % of control; (dose: 160.0 mg/kg/injection, schedule: Q04DX003 (ip), vehicle: saline with Tween-80) 168 % of control; (dose: 200.0 mg/kg/injection, schedule: Q04DX003 (ip), vehicle: saline) 167 % of control; (dose: 400.0 mg/kg/injection, schedule: Q04DX003 (ip), vehicle: saline) 94 % of control.

Consider `C=CCc1cc(CNCCCOCC)c(O)c(OC)c1`, for which the T/C is, setting by setting: (dose: 12.5 mg/kg/injection, schedule: Q04DX003 (ip), vehicle: Klucel (hydroxypropylcellulose) (HPC)) 97 % of control; (dose: 25.0 mg/kg/injection, schedule: Q04DX003 (ip), vehicle: Klucel (hydroxypropylcellulose) (HPC)) 95 % of control; (dose: 50.0 mg/kg/injection, schedule: Q04DX003 (ip), vehicle: Klucel (hydroxypropylcellulose) (HPC)) 92 % of control.

Consider `O=S1(=O)CC(c2cccc3ccccc23)Nc2ccccc21` (stereo unspecified), for which the T/C is, setting by setting: (dose: 100.0 mg/kg/injection, schedule: Q01DX001 (ip), vehicle: Klucel (hydroxypropylcellulose) (HPC)) 97 % of control; (dose: 100.0 mg/kg/injection, schedule: Q01DX009 (ip), vehicle: Klucel (hydroxypropylcellulose) (HPC)) 95 % of control; under setting [1], 95 % of control; (dose: 200.0 mg/kg/injection, schedule: Q01DX001 (ip), vehicle: Klucel (hydroxypropylcellulose) (HPC)) 93 % of control; (dose: 200.0 mg/kg/injection, schedule: Q01DX009 (ip), vehicle: Klucel (hydroxypropylcellulose) (HPC)) 95 % of control; under setting [2], 90 % of control. The T/C by setting is: (dose: 400.0 mg/kg/injection, schedule: Q01DX001 (ip), vehicle: Klucel (hydroxypropylcellulose) (HPC)) 89 % of control; (dose: 400.0 mg/kg/injection, schedule: Q01DX009 (ip), vehicle: Klucel (hydroxypropylcellulose) (HPC)) 94 % of control; (dose: 400.0 mg/kg/injection, schedule: Q04DX003 (ip), vehicle: Klucel (hydroxypropylcellulose) (HPC)) 97 % of control.

For `NC(=S)NNC(=O)/C=C/c1ccccc1`, the T/C runs as follows: under setting [3], 105 % of control; under setting [4], 91 % of control; under setting [5], 91 % of control.

As to `Cc1ccc(S(=O)(=O)Oc2ccc([N+](=O)[O-])cc2[N+](=O)[O-])cc1`, the T/C reads like this: (dose: 50.0 mg/kg/injection, schedule: Q01DX001 (ip), vehicle: carboxymethylcellulose (CMC)) 106 % of control; (dose: 50.0 mg/kg/injection, schedule: Q01DX009 (ip), vehicle: other) 100 % of control; (dose: 100.0 mg/kg/injection, schedule: Q01DX001 (ip), vehicle: carboxymethylcellulose (CMC)) 114 % of control; (dose: 100.0 mg/kg/injection, schedule: Q01DX009 (ip), vehicle: other) 96 % of control; under setting [1], 118 % of control; (dose: 200.0 mg/kg/injection, schedule: Q01DX001 (ip), vehicle: carboxymethylcellulose (CMC)) 106 % of control. In addition, the T/C runs as follows: under setting [2], 96 % of control; (dose: 400.0 mg/kg/injection, schedule: Q01DX001 (ip), vehicle: carboxymethylcellulose (CMC)) 106 % of control.

Regarding `N#CCc1cc2c(cc1[N+](=O)[O-])OCO2`, the T/C is, setting by setting: under setting [6], 97 % of control; under setting [7], 87 % of control; under setting [8], 97 % of control.

On to `C=CC(=O)N1c2ccccc2N(C(=O)C=C)C(C)C1C` (stereo unspecified), for which the T/C reads like this: under setting [6], 112 % of control; under setting [7], 104 % of control; under setting [8], 98 % of control.

With `CCC(CO)NC(=O)/C=C/c1cccc(Br)c1` (stereo unspecified), the T/C is 102 % of control (dose: 100.0 mg/kg/injection, schedule: Q04DX003 (ip), vehicle: other); 103 % of control (dose: 200.0 mg/kg/injection, schedule: Q04DX003 (ip), vehicle: other); 96 % of control (dose: 400.0 mg/kg/injection, schedule: Q04DX003 (ip), vehicle: other).

Regarding `CC1CC(C)(C)N=C(CCC2CCCC23OCCO3)O1` (stereo unspecified), the T/C is 98 % of control (dose: 100.0 mg/kg/injection, schedule: Q01DX009 (ip), vehicle: saline sonified); 101 % of control under setting [3]; 98 % of control (dose: 200.0 mg/kg/injection, schedule: Q01DX009 (ip), vehicle: saline sonified); 101 % of control under setting [4]; 94 % of control (dose: 400.0 mg/kg/injection, schedule: Q01DX009 (ip), vehicle: saline sonified); 101 % of control under setting [5].

Regarding `CCCCNC(=O)N(C)Cc1ccccc1`, the T/C by setting is: under setting [9], 105 % of control; under setting [10], 97 % of control; under setting [11], 112 % of control.

As for `O=S(=O)(c1ccccc1)N1CN2CN(C1)CN(S(=O)(=O)c1ccccc1)C2`, the T/C by setting is: under setting [9], 103 % of control; under setting [10], 106 % of control; under setting [11], 89 % of control.

With `CC(=NC1CC(C)CC(C)(C)C1)C1CC1` (stereo unspecified), the T/C was 100 % of control (dose: 55.0 mg/kg/injection, schedule: Q01DX Z (ip), vehicle: methylcellulose (MC)); 89 % of control (dose: 83.0 mg/kg/injection, schedule: Q01DX Z (ip), vehicle: methylcellulose (MC)); 100 % of control (dose: 125.0 mg/kg/injection, schedule: Q01DX Z (ip), vehicle: methylcellulose (MC)).

Take `C=CC[Se]c1ncnc2c1ccn2C1OC(CO)C(O)C1O` (stereo unspecified): the T/C is, setting by setting: (dose: 12.5 mg/kg/injection, schedule: Q01DX005 (ip), vehicle: saline) 101 % of control; (dose: 25.0 mg/kg/injection, schedule: Q01DX005 (ip), vehicle: saline) 107 % of control; (dose: 50.0 mg/kg/injection, schedule: Q01DX005 (ip), vehicle: saline) 107 % of control; (dose: 100.0 mg/kg/injection, schedule: Q01DX005 (ip), vehicle: saline) 102 % of control.

In the case of `O=C(O)C12C3(Cl)C4(Cl)C5(OCCO5)C5(Cl)C3(Cl)C1(Cl)C5(Cl)C42Cl` (stereo unspecified), the T/C is 105 % of control (dose: 50.0 mg/kg/injection, schedule: Q01DX001 (ip), vehicle: saline); 102 % of control under setting [6]; 100 % of control under setting [7].

The record behind these values is PubChem BioAssay AID248 (DTP/NCI, 2004).
